This note sets out measurements from patent EP4800013A1, “PARG INHIBITOR” (Shanghai Qilu Pharmaceutical Research and Development …, priority 2023, dated 2025).

The IC50 is the point on the concentration scale where inhibition reaches its midpoint. As usually defined, the AUC is concentration integrated over time. High values mean more exposure, low ones less exposure. For orientation: Cmax means the peak of the concentration-time curve. One may read the MRT inf as the average time that molecules of a dose stay in the body. Usually half-life stands for the time needed for the level to fall by half in the phase considered. A higher half-life goes with slow decline.

The target of one series is T1, PARG (Homo sapiens, UniProt Q86W56).
T1 construct: made in house
Description: Enzymatic inhibitory activity against PARG, HTRF assay. Type of series: biochemical. In short, it runs like this:
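Purified PARG pre-incubated with compounds (top 10 µM, 3- to 5-fold dilutions, duplicates) 15 min at room temperature, then PARylated PARP1 substrate added for 60 min in Tris pH 7.4 buffer with DTT, EDTA/EGTA, KCl. HTRF (His-Tb/SA-XL665) read-out; IC50 by four-parameter logistic fit, normalised to DMSO and control-inhibitor wells.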
(Time-resolved FRET reads energy transfer from a long-lived donor to a nearby acceptor.)

Another series deals with KURAMOCHI cells. Description: Inhibition of proliferation of KURAMOCHI cells (CellTiter-Glo, intracellular ATP). It is filed as cell-based. The following applies: 168 h, incubated for 7 days, read-out: IC50 against KURAMOCHI cells. The gist of the method:
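KURAMOCHI cells seeded at 4000/well, incubated overnight, then treated with 9-point 1:4 compound series from 10 µM (0.5% DMSO) for 7 days at 37°C, 5% CO2. Viability read by CellTiter-Glo luminescence; inhibition normalised to medium-only (100%) and DMSO (0%) controls, IC50 from variable-slope four-parameter fit.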
(In ATP-based viability assays light output follows the ATP content of the culture.)

In series [1] the test system is KURAMOCHI ovarian cancer xenograft model. Kind of series: In vivo efficacy study in KURAMOCHI ovarian cancer xenograft model. The following applies: for TGI (%) / Tumor volume (mm^3): PO; for Tumor volume (mm^3): Mean ± SEM.
Description: (§1) NOD SCID mice, female, SPF grade, purchased from Beijing Anikeepter Biotech Co., Ltd.
KURAMOCHI cells, purchased from JCRB.
(§2) The culture medium was changed weekly. […] Tumor cells in the logarithmic growth phase were used for in vivo implantation.
(§3) A total of 35 mice were inoculated: 35 mice for the efficacy study; 15 mice for the PK/PD study; 10 mice remaining after grouping. When the tumor volume reached approximately 150 to 200 mm^3, the mice were grouped for dosing to initiate the efficacy study. Specifically, they were divided into 7 groups, with 5 mice per group. The remaining animals were grouped for dosing when the tumor volume reached approximately 250 mm^3.
(§4) b. Treatment was initiated after grouping, with a dosing volume of 10 µL/g body weight via oral administration (PO). Animals were weighed daily before dosing and administered once daily for 21 consecutive days. Tumor diameters were measured twice weekly. c. Tumor volume (TV) was measured twice weekly to monitor changes in tumor size and growth rate. Tumor volume was calculated as: V = 1/2 × a × b^2, where a and b represent tumor length and tumor width, respectively. The growth inhibitory effect of compounds on tumor tissue was evaluated using tumor growth inhibition (TGI (%)). […] Data for both the treatment group and the negative control group were collected on the same day. d. The mice were weighed during tumor measurements. The relationship between changes in body weight and time of treatment was recorded. The survival and health status of the mice, including general conditions such as activity level and food intake during the dosing period, were also observed. […] Treatment was resumed when the body weight recovered to within 10% of baseline. […] Nutritional gel supplementation was provided during treatment discontinuation. e. At the study endpoint, the mice were euthanized.
Series [2] shares this test system. The note with it: mouse, in vivo, po.
Description: as §1
KURAMOCHI cells, purchased from JCRB.
as §2, §3, §4
The nature of series [3]: Pharmacokinetic evaluation in BALB/c nude mice (PO). Type of series: in vivo. The note with it: mouse, in vivo, 30 mg/kg. As for the experimental part: Using mice as test animals, the compounds of the present disclosure were administered via intravenous bolus and oral injection. Plasma samples were collected at specific time points. Compound concentrations in plasma were determined by LC-MS/MS, and PK parameters were calculated to characterize the pharmacokinetic behavior of the compounds of the present disclosure in plasma.
BALB/c nude mice, female, supplied by Jiangsu GemPharmatech Co., Ltd.
Dosing regimen for BALB/c nude mice: The PO (oral) experimental group consisted of 3 mice, which were administered at a dose of 30 mg/kg and a volume of 10 mL/kg. The dosing vehicle was 5% (v/v) DMSO/10% (v/v) Solutol/85% (v/v) saline.
Following administration, 0.025 mL of blood was collected via venipuncture at the following time points: 0.0833 (IV), 0.25, 0.5, 1, 2, 4, 8, and 24 hours. Blood samples were collected into EDTA-K2 tubes and centrifuged at 4°C and 2000 g for 10 minutes to separate plasma, which was stored at -80°C.
Mouse plasma processing: • 1) 15 µL of plasma was mixed with 200 µL of acetonitrile for protein precipitation. The mixture was vortexed and centrifuged for 15 minutes. • 2) The supernatant after processing was diluted with water and analyzed by LC/MS/MS to determine the concentration of the test compound.
Pharmacokinetic parameters were calculated using WinNonlin 6.1. Specifically, Cmax represents maximum plasma concentration, CL represents clearance, Vss represents volume of distribution at steady state, T1/2 represents terminal elimination half-life, MRTInf represents mean residence time, AUC represents area under the plasma concentration-time curve, and F represents bioavailability. Table 18: Pharmacokinetic parameters of the compounds of the present disclosure in CD-1 mice

[4] abbreviates: HTRF, PARylated PARP1 protein as substrate, 60 minutes at room temperature, read-out: IC50 against PARG enzyme.
Where [5] appears, read: KURAMOCHI xenograft, oral administration.

Like-named read-outs stand apart in the source and are kept apart here.

T1 sequence (Q86W56 whole entry): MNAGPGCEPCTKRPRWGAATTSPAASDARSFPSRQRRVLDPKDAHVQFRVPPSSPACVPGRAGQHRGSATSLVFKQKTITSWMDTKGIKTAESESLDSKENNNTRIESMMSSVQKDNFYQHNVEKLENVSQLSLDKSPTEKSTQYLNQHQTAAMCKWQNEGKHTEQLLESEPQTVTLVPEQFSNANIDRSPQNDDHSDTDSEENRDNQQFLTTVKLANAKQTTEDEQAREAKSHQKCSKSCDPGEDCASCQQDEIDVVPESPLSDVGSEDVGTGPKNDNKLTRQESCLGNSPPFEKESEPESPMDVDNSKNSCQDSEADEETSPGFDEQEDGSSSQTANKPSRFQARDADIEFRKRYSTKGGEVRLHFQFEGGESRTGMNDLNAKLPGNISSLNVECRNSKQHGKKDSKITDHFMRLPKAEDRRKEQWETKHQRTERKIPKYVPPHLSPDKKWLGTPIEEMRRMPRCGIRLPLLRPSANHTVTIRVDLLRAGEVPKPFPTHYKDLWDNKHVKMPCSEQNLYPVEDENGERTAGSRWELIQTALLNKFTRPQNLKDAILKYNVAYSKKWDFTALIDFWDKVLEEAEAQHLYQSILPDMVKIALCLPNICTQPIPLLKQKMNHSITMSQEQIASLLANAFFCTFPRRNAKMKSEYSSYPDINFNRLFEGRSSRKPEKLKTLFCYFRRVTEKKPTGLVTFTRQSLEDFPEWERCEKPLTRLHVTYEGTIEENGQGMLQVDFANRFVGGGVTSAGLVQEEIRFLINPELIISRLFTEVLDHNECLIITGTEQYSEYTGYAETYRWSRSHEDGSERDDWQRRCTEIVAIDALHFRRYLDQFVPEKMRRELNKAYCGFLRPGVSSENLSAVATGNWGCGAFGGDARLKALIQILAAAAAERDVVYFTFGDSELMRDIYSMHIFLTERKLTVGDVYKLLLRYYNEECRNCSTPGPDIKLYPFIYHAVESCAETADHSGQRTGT

On to `C[C@H]1CN(c2cc(S(=O)(=O)NC3(C)CC3)cc3c2n2ncnc2n3-c2nnc(C(F)F)s2)C[C@H](C)N1` [Compound 065M], for which the IC50 on PARG (setting [4]) worked out at 1.4 nM. In addition, in the series on KURAMOCHI cells, the 50% inhibitory concentration (IC50) turned out to be 3 nM. For the same compound, in series [1] (setting [5]), the “tolerability in mice (in words)” value is listed as “good tolerability” and the “tumor growth inhibition (in words)” value is “significantly inhibited tumor growth”. Also, in series [1] (30 mg/kg, QD × 16 days), the “TGI (%)” value is 127% and the “Tumor volume (mm^3)” value is on record as 62 ± 6 mm^3.
As to `C[C@H]1CN(c2cc(S(=O)(=O)NC3(C)CC3)cc3c2nc([C@@H]2CCCO2)n3-c2nnc(C(F)F)s2)C[C@H](C)N1` [Compound 077B2], the 50% inhibitory concentration (IC50) at PARG (setting [4]) is 1.6 nM; in the series on KURAMOCHI cells, 3 nM. Also, the “tolerability in mice (in words)” value in series [2] is reported as “good tolerability”. The “tumor growth inhibition (in words)” value in series [1] (setting [5]) is given as “significantly inhibited tumor growth”. Besides, the “TGI (%)” value in series [1] (30 mg/kg, BID × 16 days) was 127%; in series [1] (100 mg/kg, QD × 16 days), 127%. Besides, the “Tumor volume (mm^3)” value in series [1] (30 mg/kg, BID × 16 days) came to 61 ± 9 mm^3; in series [1] (100 mg/kg, QD × 16 days) it was 57 ± 10 mm^3.
As to `C[C@H]1CN(c2cc(S(=O)(=O)NC3(C)CC3)cn3c(-c4nnc(C(F)F)s4)c([C@@H]4CCCO4)nc23)C[C@H](C)N1` [Compound 080B2], the IC50 at PARG (setting [4]) is 0.4 nM. The concentration for half-maximal inhibition (IC50) in the series with KURAMOCHI cells was found to be 0.6 nM. In series [3], this compound showed an area under the curve (AUC) of 8.35 µM·h, a Cmax of 1870 nM, a mean residence time MRT inf of 3.27 h and a half-life of 2.45 h.
With `CN(C)C(=O)N1CC=C(c2cc(S(=O)(=O)NC3(C)CC3)cc3c2n(C)c(=O)n3-c2nnc(C(F)F)s2)CC1` [Compound A038], the IC50 at PARG (setting [4]) amounted to 5.2 nM; with KURAMOCHI cells, 7 nM.
The corresponding values for `CN(C)C(=O)N1CCC(c2cc(S(=O)(=O)NC3(C)CC3)cc3c2n(C)c(=O)n3-c2nnc(C(F)F)s2)CC1` [Compound A039] are 3.5 nM and 7 nM.
Taken in the same sequence, the figures for `Cn1ccnc1N1CCN(c2cc(S(=O)(=O)NC3(C)CC3)cc3c2n(C)c(=O)n3-c2nnc(C(F)F)s2)CC1` [Compound A040] were 5 nM and 9 nM.
The corresponding values for `C=CCn1c(=O)n(-c2nnc(C(F)F)s2)c2cc(S(=O)(=O)NC3(C#N)CC3)cc(N3CCN(C(=O)N(C)C)CC3)c21` [Compound A041] are 4.4 nM and 11 nM.
For the compound `[2H]C([2H])([2H])N(C(=O)N1CCN(c2cc(S(=O)(=O)NC3(C#N)CC3)cc3c2n(CC=C)c(=O)n3-c2nnc(C(F)F)s2)CC1)C([2H])([2H])[2H]` [Compound A042], the half-maximal inhibitory concentration (IC50) at PARG (setting [4]) stood at 5.1 nM; with KURAMOCHI cells it was 6 nM.
With `CCn1c(=O)n(-c2nnc(C(F)F)s2)c2cc(S(=O)(=O)NC3(C#N)CC3)cc(N3CCN(C(=O)N(C)C)CC3)c21` [Compound A043], the IC50 came out at 8 nM at PARG (setting [4]) and 11 nM in the series on KURAMOCHI cells.
Regarding `CC(C)n1c(=O)n(-c2nnc(C(F)F)s2)c2cc(S(=O)(=O)NC3(C#N)CC3)cc(N3CCN(C(=O)N(C)C)CC3)c21` [Compound A045], the IC50 at PARG (setting [4]) worked out at 13.9 nM; with KURAMOCHI cells it was 16 nM.
Turning to `CC(C)n1c(=O)n(-c2nnc(C(F)F)s2)c2cc(S(=O)(=O)NC3(C#N)CC3)cc(N3CCN(S(=O)(=O)C(C)C)CC3)c21` [Compound A046], the IC50 was 5.5 nM at PARG (setting [4]) and 8 nM with KURAMOCHI cells.
Take `CC(C)n1c(=O)n(-c2nnc(C(F)F)s2)c2cc(S(=O)(=O)NC3(C#N)CC3)cc(N3CCN(C(=O)N4CCCC4)CC3)c21` [Compound A047]: the IC50 against PARG was determined as 15 nM; with KURAMOCHI cells it was 13 nM.
`CC(C)n1c(=O)n(-c2nnc(C(F)F)s2)c2cc(S(=O)(=O)NC3(C#N)CC3)cc(N3CCN(C(=O)C(C)(C)F)CC3)c21` [Compound A048]: the half-maximal inhibitory concentration (IC50) on PARG (setting [4]) is 34.8 nM; in the series on KURAMOCHI cells it was 27 nM.
`CC(C)n1c(=O)n(-c2nnc(C(F)F)s2)c2cc(S(=O)(=O)NC3(C#N)CC3)cc(N3CCN(C(=O)C(C)(C)O)CC3)c21` [Compound A049]: the half-maximal inhibitory concentration (IC50) on PARG (setting [4]) is 15.7 nM; in the series on KURAMOCHI cells, 50 nM.
Regarding `CC(C)C(=O)N1CCN(c2cc(S(=O)(=O)NC3(C#N)CC3)cc3c2n(C(C)C)c(=O)n3-c2nnc(C(F)F)s2)CC1` [Compound A050], the 50% inhibitory concentration (IC50) was 22.5 nM on PARG (setting [4]) and 20 nM in the series on KURAMOCHI cells.
Turning to `C=CCn1c(=O)n(-c2nnc(C(F)F)s2)c2cc(S(=O)(=O)NC3(C#N)CC3)cc(N3CCN(C(=O)C(C)C)CC3)c21` [Compound A051], the IC50 at PARG (setting [4]) is 7.5 nM; with KURAMOCHI cells it was 12 nM.
The corresponding values for `C=CCn1c(=O)n(-c2nnc(C(F)F)s2)c2cc(S(=O)(=O)NC3(C#N)CC3)cc(N3CCN(S(=O)(=O)C(C)C)CC3)c21` [Compound A052] are 1.6 nM and 2 nM.
Turning to `C=CCn1c(=O)n(-c2nnc(C(F)F)s2)c2cc(S(=O)(=O)NC3(C#N)CC3)cc(N3CCN(C(=O)C(C)(C)O)CC3)c21` [Compound A053], the figures for the concentration for half-maximal inhibition (IC50) at PARG (setting [4]) and in the series with KURAMOCHI cells were 6.7 nM and 37 nM, respectively.
With `CC1(NS(=O)(=O)c2cc(N3CCNCC3)c3ncn(-c4nnc(C(F)F)s4)c3c2)CC1` [Compound B001], the IC50 at PARG (setting [4]) was found to be 44.7 nM; with KURAMOCHI cells, 53 nM.
The corresponding values for `CC(C)C(=O)N1CCN(c2cc(S(=O)(=O)NC3(C)CC3)cc3c2ncn3-c2nnc(C(F)F)s2)CC1` [Compound B002] are 11.6 nM and 16 nM.
In the case of `CN(C)C(=O)N1CCN(c2cc(S(=O)(=O)NC3(C)CC3)cc3c2ncn3-c2nnc(C(F)F)s2)CC1` [Compound B003], the IC50 on PARG (setting [4]) came out at 10.2 nM; in the series with KURAMOCHI cells it was 16 nM.
With `CC(C)C(=O)N1CCN(c2cc(S(=O)(=O)NC3(C#N)CC3)cc3c2ncn3-c2nnc(C(F)F)s2)CC1` [Compound B010], the IC50 was found to be 31.4 nM on PARG (setting [4]) and 59 nM in the series on KURAMOCHI cells.
The corresponding values for `CN(C)C(=O)N1CCN(c2cc(S(=O)(=O)NC3(C#N)CC3)cc3c2ncn3-c2nnc(C(F)F)s2)CC1` [Compound B011] are 9.9 nM and 32 nM.
On to `N#CC1(NS(=O)(=O)c2cc(N3CCN(C(=O)N4CCCC4)CC3)c3ncn(-c4nnc(C(F)F)s4)c3c2)CC1` [Compound B013], for which the IC50 on PARG (setting [4]) is 21.3 nM; with KURAMOCHI cells, 53 nM.
Taken in the same sequence, the figures for `CC(C)(F)C(=O)N1CCN(c2cc(S(=O)(=O)NC3(C#N)CC3)cc3c2ncn3-c2nnc(C(F)F)s2)CC1` [Compound B014] were 31.4 nM and 43 nM.
As for `C[C@H]1CN(c2cc(S(=O)(=O)NC3(C#N)CC3)cc3c2ncn3-c2nnc(C(F)F)s2)C[C@H](C)N1` [Compound B016], the IC50 amounted to 21.2 nM at PARG (setting [4]) and 74 nM in the series with KURAMOCHI cells.
Consider `C[C@H]1CN(c2cc(S(=O)(=O)NC3(C#N)CC3)cc3c2ncn3-c2nnc(C(F)F)s2)C[C@H](C)N1C(=O)N(C)C` [Compound B017], for which the IC50 on PARG (setting [4]) turned out to be 31.5 nM; in the series on KURAMOCHI cells, 20 nM.
Turning to `COc1nc2c(N3CCN(C(=O)N(C)C)CC3)cc(S(=O)(=O)NC3(C#N)CC3)cc2n1-c1nnc(C(F)F)s1` [Compound B019], the IC50 at PARG (setting [4]) came to 6.3 nM; with KURAMOCHI cells it was 19 nM.
Consider `COc1nc2c(N3CCN(C(=O)C(C)C)CC3)cc(S(=O)(=O)NC3(C#N)CC3)cc2n1-c1nnc(C(F)F)s1` [Compound B020], for which the concentration for half-maximal inhibition (IC50) on PARG (setting [4]) worked out at 19.8 nM; with KURAMOCHI cells it was 59 nM.
For `Cc1nc2c(N3CCN(C(=O)N(C)C)CC3)cc(S(=O)(=O)NC3(C#N)CC3)cc2n1-c1nnc(C(F)F)s1` [Compound B021], the half-inhibitory concentration (IC50) on PARG (setting [4]) is 25.1 nM; in the series on KURAMOCHI cells, 51 nM.
With `CN(C)C(=O)N1CCN(c2cc(S(=O)(=O)NC3(C)CC3)cc3c2nnn3-c2nnc(C(F)F)s2)CC1` [Compound C002], the results for the concentration for half-maximal inhibition (IC50) on PARG (setting [4]) and in the series on KURAMOCHI cells were 48.2 nM and 25 nM, respectively.
